Reference: ChEMBL document CHEMBL3608247, “Human SIRT3 tripeptidic inhibitors containing N(ε)-thioacetyl-lysine” (Bioorg Med Chem Lett, 2015)

Assays:
[1] = target: T1, NAD-dependent protein deacetylase sirtuin-1 (Homo sapiens, UniProt Q96EB6); assay: Inhibition of human His6 or GST-tagged SIRT1 after 10 mins by HPLC analysis in presence of beta-NAD
T1 sequence (Q96EB6 whole entry): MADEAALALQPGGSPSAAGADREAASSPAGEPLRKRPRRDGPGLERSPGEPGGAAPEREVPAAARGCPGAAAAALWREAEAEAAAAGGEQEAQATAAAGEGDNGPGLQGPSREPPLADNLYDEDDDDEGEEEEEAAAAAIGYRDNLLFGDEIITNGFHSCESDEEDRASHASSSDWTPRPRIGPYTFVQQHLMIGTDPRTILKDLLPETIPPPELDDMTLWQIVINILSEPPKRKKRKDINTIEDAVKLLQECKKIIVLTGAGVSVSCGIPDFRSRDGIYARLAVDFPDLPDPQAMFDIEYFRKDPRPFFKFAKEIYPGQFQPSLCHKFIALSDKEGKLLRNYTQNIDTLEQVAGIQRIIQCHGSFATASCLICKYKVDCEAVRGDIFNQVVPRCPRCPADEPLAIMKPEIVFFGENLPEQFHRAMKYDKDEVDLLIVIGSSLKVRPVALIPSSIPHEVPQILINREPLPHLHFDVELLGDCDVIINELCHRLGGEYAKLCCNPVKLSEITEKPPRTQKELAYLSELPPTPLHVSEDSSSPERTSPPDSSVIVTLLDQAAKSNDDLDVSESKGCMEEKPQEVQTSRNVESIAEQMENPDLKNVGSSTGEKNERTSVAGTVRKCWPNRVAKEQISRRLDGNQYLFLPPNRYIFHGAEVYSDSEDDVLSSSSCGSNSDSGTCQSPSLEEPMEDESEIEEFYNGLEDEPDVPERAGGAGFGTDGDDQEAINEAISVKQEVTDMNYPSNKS

[2] = target: T2, NAD-dependent protein deacetylase sirtuin-2 (Homo sapiens, UniProt Q8IXJ6); assay: Inhibition of human His6-tagged SIRT2 after 12 mins by HPLC analysis in presence of beta-NAD
T2 sequence (Q8IXJ6 whole entry): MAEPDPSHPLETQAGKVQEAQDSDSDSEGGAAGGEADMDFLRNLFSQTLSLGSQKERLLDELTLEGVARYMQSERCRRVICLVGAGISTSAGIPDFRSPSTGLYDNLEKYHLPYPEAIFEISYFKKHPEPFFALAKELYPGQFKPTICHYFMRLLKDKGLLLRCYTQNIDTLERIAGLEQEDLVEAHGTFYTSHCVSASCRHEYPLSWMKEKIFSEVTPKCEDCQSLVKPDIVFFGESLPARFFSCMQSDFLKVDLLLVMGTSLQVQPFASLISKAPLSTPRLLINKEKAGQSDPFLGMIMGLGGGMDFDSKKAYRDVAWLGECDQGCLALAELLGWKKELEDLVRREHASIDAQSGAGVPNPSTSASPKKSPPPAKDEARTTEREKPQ

[3] = target: T1, NAD-dependent protein deacetylase sirtuin-1; assay: Inhibition of human His6 or GST-tagged SIRT1 after 10 mins by Dixon plot analysis in presence of beta-NAD
[4] = target: T2, NAD-dependent protein deacetylase sirtuin-2; assay: Inhibition of human His6-tagged SIRT2 after 12 mins by Dixon plot analysis in presence of beta-NAD
[5] = target: T3, NAD-dependent protein deacetylase sirtuin-3, mitochondrial (Homo sapiens, UniProt Q9NTG7); assay: Inhibition of human His6-tagged SIRT3 after 10 mins by Dixon plot analysis in presence of beta-NAD
T3 sequence (Q9NTG7 whole entry): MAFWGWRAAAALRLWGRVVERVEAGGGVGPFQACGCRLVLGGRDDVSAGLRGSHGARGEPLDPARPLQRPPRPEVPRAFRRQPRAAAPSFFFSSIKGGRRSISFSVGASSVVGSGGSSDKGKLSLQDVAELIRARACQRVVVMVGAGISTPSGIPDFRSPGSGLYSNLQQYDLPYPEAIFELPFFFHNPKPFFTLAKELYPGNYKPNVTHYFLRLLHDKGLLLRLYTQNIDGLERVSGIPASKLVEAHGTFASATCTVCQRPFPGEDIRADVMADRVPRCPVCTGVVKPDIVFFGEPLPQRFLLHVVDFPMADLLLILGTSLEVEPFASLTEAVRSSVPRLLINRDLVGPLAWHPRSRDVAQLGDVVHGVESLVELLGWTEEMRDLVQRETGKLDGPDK

[6] = target: NAD-dependent protein deacylase sirtuin-5, mitochondrial (Homo sapiens, UniProt Q9NXA8); assay: Inhibition of human GST-tagged SIRT5 after 5 mins by HPLC analysis in presence of beta-NAD
Chain of NAD-dependent protein deacylase sirtuin-5, mitochondrial (Q9NXA8 whole entry): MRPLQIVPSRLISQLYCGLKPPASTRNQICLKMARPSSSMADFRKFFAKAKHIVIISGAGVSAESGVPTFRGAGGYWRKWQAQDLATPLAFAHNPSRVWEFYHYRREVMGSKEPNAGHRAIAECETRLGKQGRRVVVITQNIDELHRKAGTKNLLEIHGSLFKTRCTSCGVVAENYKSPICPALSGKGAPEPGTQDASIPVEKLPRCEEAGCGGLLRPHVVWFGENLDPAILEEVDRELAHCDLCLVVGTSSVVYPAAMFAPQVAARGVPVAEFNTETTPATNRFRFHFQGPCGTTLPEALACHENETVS

[7] = target: NAD-dependent protein deacylase sirtuin-6 (Homo sapiens, UniProt Q8N6T7); assay: Inhibition of human GST-tagged SIRT6 after 12 mins by HPLC analysis in presence of beta-NAD
Chain of NAD-dependent protein deacylase sirtuin-6 (Q8N6T7 whole entry): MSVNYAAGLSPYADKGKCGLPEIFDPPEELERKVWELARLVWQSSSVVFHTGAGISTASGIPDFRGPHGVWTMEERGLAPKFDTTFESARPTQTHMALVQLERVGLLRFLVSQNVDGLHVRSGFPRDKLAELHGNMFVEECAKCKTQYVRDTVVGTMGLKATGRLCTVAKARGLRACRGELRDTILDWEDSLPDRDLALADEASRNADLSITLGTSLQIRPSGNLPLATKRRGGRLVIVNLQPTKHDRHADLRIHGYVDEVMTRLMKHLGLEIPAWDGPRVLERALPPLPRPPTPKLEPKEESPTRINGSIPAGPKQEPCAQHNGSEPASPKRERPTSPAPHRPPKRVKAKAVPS

[8] = species on record: Homo sapiens; assay: Selectivity ratio of IC50 for human His6 or GST-tagged SIRT1 to IC50 for human His6-tagged SIRT3
[9] = species on record: Homo sapiens; assay: Selectivity ratio of IC50 for human His6-tagged SIRT2 to IC50 for human His6-tagged SIRT3
[10] = target: T3, NAD-dependent protein deacetylase sirtuin-3, mitochondrial; assay: Inhibition of human His6-tagged SIRT3 after 10 mins by HPLC analysis in presence of beta-NAD

| Structure (SMILES) | IC50 [1] | IC50 [2] | IC50 [10] | other results |
| --- | --- | --- | --- | --- |
| CC(=O)NCCCC[C@H](NC(=O)[C@H](CCCCNC(C)=S)NC(=O)[C@H](Cc1ccc(-c2ccccc2)cc1)NC(C)=O)C(N)=O | 3.03 µM | 4.5 µM |  |  |
| CC(=O)NCCCC[C@H](NC(C)=O)C(=O)N[C@@H](CCCCNC(C)=S)C(=O)N[C@@H](CCc1ccccc1)C(N)=O | 1.45 µM | 0.65 µM |  |  |
| CC(=O)NC[C@H](NC(=O)[C@H](CCCCNC(C)=S)NC(=O)[C@H](Cc1ccc2ccccc2c1)NC(C)=O)C(N)=O |  |  |  | IC50 [3]: 18.9 µM; IC50 [4]: 17.8 µM; IC50 [5]: 1.91 µM; IC50 [6]: 2000 µM; IC50 [7]: 307 µM; Ratio IC50 [8]: 9.9; Ratio IC50 [9]: 9.3 |
| CCCC[C@H](NC(C)=O)C(=O)N[C@@H](CCCCNC(C)=S)C(=O)N[C@@H](CCCCNC(C)=O)C(N)=O | 2.78 µM | 0.81 µM |  |  |
| CC(=O)NCCCC[C@H](NC(C)=O)C(=O)N[C@@H](CCCCNC(C)=S)C(=O)N[C@@H](Cc1ccc2ccccc2c1)C(N)=O | 0.64 µM | 2.26 µM | 2.1 µM |  |
| CC(=O)NC[C@H](NC(=O)[C@H](CCCCNC(C)=S)NC(=O)[C@H](Cc1csc2ccccc12)NC(C)=O)C(N)=O | 9.6 µM | 8.75 µM | 1.75 µM | Ratio IC50 [8]: 5.5; Ratio IC50 [9]: 5 |
| CC[C@H](NC(=O)[C@H](CCCCNC(C)=S)NC(=O)[C@H](CCCCNC(C)=O)NC(C)=O)C(N)=O | 1.96 µM | 1.41 µM | 1.1 µM |  |
| CC(=O)NCCCC[C@H](NC(=O)[C@H](CCCCNC(C)=S)NC(=O)[C@H](CCc1ccccc1)NC(C)=O)C(N)=O | 3.65 µM | 5.52 µM |  |  |
| CC(=O)NCCCC[C@H](NC(C)=O)C(=O)N[C@@H](CCCCNC(C)=S)C(=O)N[C@@H](Cc1csc2ccccc12)C(N)=O | 1.15 µM | 2.38 µM | 1.4 µM |  |
| CCC[C@H](NC(=O)[C@H](CCCCNC(C)=S)NC(=O)[C@H](CCCCNC(C)=O)NC(C)=O)C(N)=O | 2.85 µM | 1.38 µM |  |  |
| CC(=O)NC[C@H](NC(=O)[C@H](CCCCNC(C)=S)NC(=O)[C@H](Cc1ccc(-c2ccccc2)cc1)NC(C)=O)C(N)=O | 6.6 µM | 8.32 µM | 1.62 µM | Ratio IC50 [8]: 4.1; Ratio IC50 [9]: 5.1 |
| CC(=O)NCCCC[C@H](NC(=O)[C@H](CCCCNC(C)=S)NC(=O)[C@H](Cc1csc2ccccc12)NC(C)=O)C(N)=O |  |  |  | IC50 [3]: 14.4 µM; IC50 [4]: 14.5 µM; IC50 [5]: 1.44 µM |
| CC(=O)NCCCC[C@H](NC(=O)[C@H](CCCCNC(C)=S)NC(=O)[C@H](Cc1ccc2ccccc2c1)NC(C)=O)C(N)=O |  |  |  | IC50 [3]: 12.6 µM; IC50 [4]: 12 µM; IC50 [5]: 1.29 µM |
| CC(=O)NC[C@H](NC(=O)[C@H](CCCCNC(C)=S)NC(=O)[C@H](CNC(C)=O)NC(C)=O)C(N)=O | 6.6 µM | 11.9 µM | 1.8 µM | Ratio IC50 [8]: 3.7; Ratio IC50 [9]: 6.6 |

Continued, in another order:

| IC50 [1] | IC50 [2] | IC50 [10] | Structure (SMILES) | other results |
| --- | --- | --- | --- | --- |
| 2.32 µM | 1.51 µM | 0.36 µM | CC(=O)NCCCC[C@H](NC(C)=O)C(=O)N[C@@H](CCCCNC(C)=S)C(=O)N[C@@H](CNC(C)=O)C(N)=O |  |
| 10.7 µM | 7.71 µM | 2.1 µM | CCC[C@H](NC(C)=O)C(=O)N[C@@H](CCCCNC(C)=S)C(=O)N[C@@H](CCCCNC(C)=O)C(N)=O |  |
| 6.86 µM | 7.76 µM | 1 µM | CC(=O)NCCCC[C@H](NC(=O)[C@H](CCCCNC(C)=S)NC(=O)[C@H](CNC(C)=O)NC(C)=O)C(N)=O |  |
| 2.4 µM | 3.92 µM | 3.2 µM | CC(=O)NCCCC[C@H](NC(C)=O)C(=O)N[C@@H](CCCCNC(C)=S)C(=O)N[C@@H](Cc1ccc(-c2ccccc2)cc1)C(N)=O |  |
| 0.63 µM | 5.1 µM |  | CCCC[C@H](NC(=O)[C@H](CCCCNC(C)=S)NC(=O)[C@H](CCCCNC(C)=O)NC(C)=O)C(N)=O |  |
| 2.13 µM | 1.34 µM |  | CC[C@H](NC(C)=O)C(=O)N[C@@H](CCCCNC(C)=S)C(=O)N[C@@H](CCCCNC(C)=O)C(N)=O |  |
